Results on four compounds are retold here after patent US20030195183A1, “Method for correcting immune system of live body” (priority 2000, published 2003).

Entries after “also recorded” stand apart in the source; their conditions may differ. Like-named read-outs stand apart in the source and are kept apart here.

For series [1], the system named is spleen cell culture.
Experimental: Effects of the compounds on lymphoid cells proliferation and interleukin-2 induction in vitro were evaluated with the use of Strain BalB/c mice weighing 16 to 18 g. Animals of control and study groups were matched by sex and weight. Each dose of the preparation was tested on 10 animals; as a whole, more than 800 mice have been studied.
Spleens of the animals were used for carrying out the immunologic reactions. The organs were cut and homogenized in a glass homogenizer. […] The suspensions were centrifuged in a K23 centrifuge at 1,500 rpm at 4° C. for 10 minutes.
The suspensions were diluted 100-fold with 3% acetic acid contrasted with methylene blue, and cells were counted in Goryaev's chamber. Cell viability was evaluated with aid of 0.1% trypan blue in physiologic solution.
Series [2] concerns Strain 264 E. Coli. In words: non-specific resistivity of mice infected with E. Coli. The class given is in vivo, Strain C57BL6 mice. The arrangement: Mean lifetime: unit not given beside the values. As for the experimental part:
Doses of the preparation ranging from 200 to 0.2 μg were injected intraperitoneally at ten-fold intervals in 0.5 ml of physiologic solution to Strain C57BL6 mice two hours before their infecting. Mice were infected with S. Typhi in a dose of 1·10^4 microbial cells; another group of animals was infected with Strain 264 E. coli in a dose of […] microbial cells. Mice infected with the same microbial culture, but receiving no preparation, were used a controls. Lethal outcomes in mice were recorded every day for a period of 10 days.

Series [3] has as its system natural killers (CD3−, CD16+ and CD56+). In words: cytotoxic activity of natural killers against K-562 cells. The class given is cell-based, human. As for the experimental part:
Labeled cells of […] of myeloblastoid Strain K-562, as well as mononuclear cells of 10 healthy blood donors and 10 patients with various diseases with low and high levels of cytotoxicity, were used for the study of effects of various concentrations of the preparation on cytotoxic activity of natural killers (CD3^−, CD16^+ and CD56^+).
The used Strain K-562 cells to effector cells ratio was 1:25 (100 μl of labeled cells and 100 μl of mononuclear cells). The studies were carried out using 96-well plates; incubation for 16 to 24 hours in a CO2-incubator at 37° C. was carried out. Then, the contents of the wells was transferred to filters, washed, dried and placed in solution with scintillation liquid with consecutive determination of index using a β-counter. Cytotoxic index (CI) was calculated using the following formula: [formula]
A=the target cells radioactivity in the presence of effector cells;
B=radioactivity after cells treatment with […] (maximum value);
C=radioactivity of target cells in the absence of effector cells.

Series [4] concerns cellular immune response (DHR to ram erythrocytes). Description: delayed hypersensitivity reaction (DHR) in mice. The class given is in vivo. On the procedure:
To evaluate the effect of the preparation on cellular immunity reaction, delayed hypersensitivity reaction (DHR) was used. The mice were sensitized by subcutaneous injection of 1·10^7 ram erythrocytes contained in a volume of 20 μl. Doses of the preparation ranging from 0.2 to 2,000 μg were injected at ten-fold intervals simultaneously with sensitizing and shocking dose of the antigen. Shocking dose of ram erythrocytes (1·10^8) was injected under aponeurotic plate of left hind paw on the 5th day after sensitization. Injection of 20 μl of physiologic solution in the right paw served as control. Intensity of inflammatory reaction was recorded 24 hours after the administration of shocking dose of the antigen. For this purpose, the mice were killed and, immediately after this, both paws were amputated at the level of ankle joint and weighed on torsion balance. Reaction index (RI) was determined as the difference of masses of study (S) and control (C) paws using the following formula: [formula]

For `Cl.Nc1cccc2c(=O)[nH][nH]c(=O)c12` [5-amino-2,3-dihydrophthalazine-1,4-dione hydrochloride], the lymphoid cells proliferation in series [1] (2.5 μg/ml, ConA) is recorded as 195 ± 27; in series [1] (2.5 μg/ml, LPS) it was 251 ± 44; in series [1] (2.5 μg/ml, no mitogen), 249 ± 93; in series [1] (12.5 μg/ml, ConA), 178 ± 28; in series [1] (12.5 μg/ml, LPS), 256 ± 40; in series [1] (12.5 μg/ml, no mitogen) it was 369 ± 56. Besides, the lymphoid cells proliferation was 11860 ± 1566 in series [1] (50 μg/ml, ConA); 13232 ± 928 in series [1] (50 μg/ml, LPS); 2576 ± 237 in series [1] (50 μg/ml, no mitogen); 1323 ± 192 in series [1] (500 μg/ml, ConA); 3870 ± 308 in series [1] (500 μg/ml, LPS); 1763 ± 94 in series [1] (500 μg/ml, no mitogen). In addition, the mitogenic properties entry in series [1] (50 μg/ml to 12.5 mg/ml) is reported as “no mitogenic properties”. Further, the “spontaneous proliferation of spleen cells and proliferation induced by ConA and LPS” value in series [1] (higher concentrations) is “inhibited”.

Regarding `Nc1cccc2c(=O)[nH][nH]c(=O)c12.[Ca]` [calcium salt of 5-amino-2,3-dihydrophthalazine-1,4-dione], the Mean lifetime in series [2] (dose 0.2 μg) came out at 2.2; in series [2] (dose 2 μg), 1.0; in series [2] (dose 20 μg) it was 1.0; in series [2] (dose 200 μg), 1.0. The “Number of lethal outcomes, day 1” value in series [2] (dose 0.2 μg i.p., 10 mice) is 4; in series [2] (dose 2 μg i.p., 10 mice), 10; in series [2] (dose 20 μg i.p., 10 mice), 10; in series [2] (dose 200 μg i.p. two hours before infecting, 10 mice), 10. Besides, the “Number of lethal outcomes, day 3” value in series [2] (dose 0.2 μg i.p., 10 mice) is given as 6. In series [2] (dose 0.2 μg, versus controls), the “increase in lifetime of animals infected with E. Coli” value came to 2.2 fold. In addition, the “effects on the resistivity of mice infected with E. Coli” value in series [2] (doses 200 to 2 μg) is “no effects”.

For the compound `CNc1cccc2c(=O)[nH][nH]c(=O)c12.[Na]` [sodium salt of 5-methylamino-2,3-dihydrophthalazine-1,4-dione], the “Cytotoxic index level, % (M)” value was 57 ± 0.7% in series [3] (2.5 μg/ml, High control level of CI); 34 ± 1.3% in series [3] (2.5 μg/ml, Low control level of CI); 41.9 ± 0.9% in series [3] (2.5 μg/ml, Medium control level of CI); 54 ± 0.8% in series [3] (5.0 μg/ml, High control level of CI); 30 ± 1.2% in series [3] (5.0 μg/ml, Low control level of CI). The “CI, %” value in series [3] (2.5 μg/ml, normal level of CI) turned out to be 41.9 ± 2.8%; in series [3] (5.0 μg/ml, normal level of CI), 38.8 ± 3.1%; in series [3] (10.0 μg/ml, normal level of CI), 40.8 ± 3.0%; in series [3] (25.0 μg/ml, normal level of CI), 41.4 ± 3.0%; in series [3] (50.0 μg/ml, normal level of CI) it was 39.1 ± 4.0%; in series [3] (75.0 μg/ml, normal level of CI), 37.7 ± 4.1%. Further, the “CI, %” value in series [3] (150.0 μg/ml, normal level of CI) is recorded as 41.0 ± 3.5%; in series [3] (300.0 μg/ml, normal level of CI) it was 39.0 ± 3.1%. The “cytotoxicity of natural killers” value in series [3] (2.5 and 5.0 μg/ml, high initial level of CI) is “statistically significant inhibition”. Further, the “functional activity of natural killers” value in series [3] (2.5 and 5.0 μg/ml, low initial level of CI) is given as “statistically significant stimulation”. The “modification of natural killers cytotoxicity” value in series [3] (2.5 to 300 μg/ml, normal level of CI) is “did not cause significant modification”.

As for `Nc1ccc2c(=O)[nH][nH]c(=O)c2c1.[Na]` [sodium salt of 6-amino-2,3-dihydrophthalazine-1,4-dione], the Reaction index in series [4] (2 μg, Strain C57BL6 mice) was 19 ± 9; in series [4] (2 μg, Strain CBA mice) it was 11 ± 8; in series [4] (20 μg, Strain C57BL6 mice), 16 ± 9; in series [4] (20 μg, Strain CBA mice), 10 ± 5; in series [4] (200 μg, Strain C57BL6 mice), 15 ± 6; in series [4] (200 μg, Strain CBA mice) it was 2 ± 1.5. The “development of DHR” value was “inhibition of DHR; also recorded: suppressed” in series [4] (200 μg, high-reaction Strain CBA mice) and “no effect” in series [4] (20 to 2 μg, mice of both strains). The “reaction index (trend)” value in series [4] (mice of both strains, as the dose of the preparation decreased) is recorded as “tendency to increase”.
